Test results: article PMC4256409, “Role of Phenylalanine and Valine^10 Residues in the Antimicrobial Activity and Cytotoxicity of Piscidin-1” (PLoS ONE, 2014)
Where no end group is shown, it is not given here.

Assays:
E. coli KCTC1682 = assay type: cell-based, Escherichia coli; details: KCTC1682, 16 h
MRSA CCARM 3114 = assay type: cell-based, Methicillin-resistant S. aureus; details: CCARM 3114, 16 h
S. epidermidis KCTC1917 = assay type: cell-based, Staphylococcus epidermidis; details: KCTC1917, 16 h
MDRPA CCARM 2003 = assay type: cell-based, multidrug-resistant P. aeruginosa; details: broth microdilution, 37°C, 16 h, three independent experiments in triplicate, SD 14.0%
B. subtilis KCTC1022 = assay type: cell-based, Bacillus subtilis; details: KCTC1022, 16 h
MDREC CCARM 1229 = assay type: cell-based, multidrug-resistant E. coli; details: broth microdilution, 37°C, 16 h, three independent experiments in triplicate, SD 14.0%
S. aureus KCTC1621 = assay type: cell-based, Staphylococcus aureus; details: KCTC1621, 16 h
MDRST CCARM 8007 = assay type: cell-based, multidrug-resistant S. typhimurium; details: broth microdilution, 37°C, 16 h, three independent experiments in triplicate, SD 14.0%
MDRPA CCARM 2163 = assay type: cell-based, multidrug-resistant P. aeruginosa; details: broth microdilution, 37°C, 16 h, three independent experiments in triplicate, SD 14.0%
MRSA CCARM3089 = assay type: cell-based, Methicillin-resistant S. aureus; details: CCARM3089, 16 h
MDRAB CCARM 12005 = assay type: cell-based, multidrug-resistant Acinetobacter baumanii; details: broth microdilution, 37°C, 16 h, three independent experiments in triplicate, SD 14.0%
MDRAB CCARM 12035 = assay type: cell-based, multidrug-resistant Acinetobacter baumanii; details: broth microdilution, 37°C, 16 h, three independent experiments in triplicate, SD 14.0%
MRSA CCARM 3108 = assay type: cell-based, Methicillin-resistant S. aureus; details: CCARM 3108, 16 h
MDRPA CCARM 2002 = assay type: cell-based, multidrug-resistant P. aeruginosa; details: broth microdilution, 37°C, 16 h, three independent experiments in triplicate, SD 14.0%
MRSA CCARM 3126 = assay type: cell-based, Methicillin-resistant S. aureus; details: CCARM 3126, 16 h
[1] = tested on: Drug-resistant bacterial strains; details: average over the 18 drug-resistant bacterial strains of Table 3
From the text: Escherichia coli KCTC 1682, E. coli KCTC 2593, E. coli KCTC 2571, Salmonella typhimurium KCTC 1926, Pseudomonas aeruginosa KCTC 1637, P. aeruginosa KCTC 2004, P. aeruginosa KCTC 2513, Bacillus subtilis KCTC 3068, B. subtilis KCTC 1021, B. subtilis KCTC 1022, Staphylococcus epidermidis KCTC 1917, Staphylococcus aureus KCTC 1621, S. aureus KCTC 1916, and S. aureus KCTC 3881 were purchased from the Korean Collection for Type Cultures, Korea Research Institute of Bioscience & Biotechnology (Taejon, Korea). Methicillin-resistant S. aureus (MRSA) (CCARM 3089, CCARM 3090, CCARM 3108, CCARM 3114, and CCARM 3126), multidrug-resistant E. coli (MDREC) (CCARM 1229 and CCARM 1238), multidrug-resistant S. typhimurium (MDRST) (CCARM 8003, CCARM 8007, and CCARM 8009), multidrug-resistant Acinetobacter baumanii (MDRAB) (CCARM 12005, CCARM 12035, CCARM 12036, CCARM 12037), and multidrug-resistant P. aeruginosa (MDRPA) (CCARM 2002, CCARM 2003, CCARM 2095, and CCARM 2163) were obtained from the Culture Collection of Antibiotic-Resistant Microbes (CCARM) at Seoul Women’s University in Korea. The antimicrobial activities of the peptides against selected organisms, including three Gram-positive, three Gram-negative, and five antibiotic-resistant bacteria, were determined using a broth microdilution assay. Briefly, single colonies of bacteria and fungi were inoculated into Luria-Bertani (LB) medium and cultured overnight at 37°C. An aliquot of the culture was transferred to 10 mL of fresh LB and incubated for an additional 3–5 h at 37°C until it reached the mid-logarithmic phase. Two-fold serial dilutions of the peptides in 1% peptone were prepared. The serial dilutions (100 µL) were added to 100 µL of cells (2×10^6 colony-forming units (CFU)/mL) in 96-well microtiter plates and incubated at 37°C for 16 h. […] MIC values were calculated as the average of triplicate measurements from three independent assays.

MDREC CCARM 1238 = assay type: cell-based, multidrug-resistant E. coli; details: broth microdilution, 37°C, 16 h, three independent experiments in triplicate, SD 14.0%
MDRPA CCARM 2095 = assay type: cell-based, multidrug-resistant P. aeruginosa; details: broth microdilution, 37°C, 16 h, three independent experiments in triplicate, SD 14.0%
P. aeruginosa KCTC1637 = assay type: cell-based, Pseudomonas aeruginosa; details: KCTC1637, 16 h
MRSA CCARM 3090 = assay type: cell-based, Methicillin-resistant S. aureus; details: CCARM 3090, 16 h
P. aeruginosa KCTC2513 = assay type: cell-based, Pseudomonas aeruginosa; details: KCTC2513, 16 h
B. subtilis KCTC1021 = assay type: cell-based, Bacillus subtilis; details: KCTC1021, 16 h
MDRST CCARM 8003 = assay type: cell-based, multidrug-resistant S. typhimurium; details: broth microdilution, 37°C, 16 h, three independent experiments in triplicate, SD 14.0%
E.coli KCTC2571 = assay type: cell-based, Escherichia coli; details: KCTC2571, 16 h
[2] = tested on: Standard bacterial strains; assay type: cell-based; details: average over the 14 standard bacterial strains of Table 2
B. subtilis KCTC3068 = assay type: cell-based, Bacillus subtilis; details: KCTC3068, 16 h
MDRAB CCARM 12037 = assay type: cell-based, multidrug-resistant Acinetobacter baumanii; details: broth microdilution, 37°C, 16 h, three independent experiments in triplicate, SD 14.0%
P. aeruginosa KCTC2004 = assay type: cell-based, Pseudomonas aeruginosa; details: KCTC2004, 16 h
S. typhimurium KCTC1926 = assay type: cell-based, Salmonella typhimurium; details: KCTC1926, 16 h
S. aureus KCTC3881 = assay type: cell-based, Staphylococcus aureus; details: KCTC3881, 16 h
S. aureus KCTC1916 = assay type: cell-based, Staphylococcus aureus; details: KCTC1916, 16 h
MDRST CCARM 8009 = assay type: cell-based, multidrug-resistant S. typhimurium; details: broth microdilution, 37°C, 16 h, three independent experiments in triplicate, SD 14.0%
E. coli KCTC2593 = assay type: cell-based, Escherichia coli; details: KCTC2593, 16 h
MDRAB CCARM 12036 = assay type: cell-based, multidrug-resistant Acinetobacter baumanii; details: broth microdilution, 37°C, 16 h, three independent experiments in triplicate, SD 14.0%

Sequence	MIC (E. coli KCTC1682)	MIC (MRSA CCARM 3114)	MIC (S. epidermidis KCTC1917)	MIC (MDRPA CCARM 2003)	MIC (B. subtilis KCTC1022)	MIC (MDREC CCARM 1229)	MIC (S. aureus KCTC1621)	MIC (MDRST CCARM 8007)	MIC (MDRPA CCARM 2163)	MIC (MRSA CCARM3089)	MIC (MDRAB CCARM 12005)	MIC (MDRAB CCARM 12035)	MIC (MRSA CCARM 3108)	MIC (MDRPA CCARM 2002)	MIC (MRSA CCARM 3126)	Average MIC [1]	MIC (MDREC CCARM 1238)	MIC (MDRPA CCARM 2095)	MIC (P. aeruginosa KCTC1637)	MIC (MRSA CCARM 3090)	also measured
FFHHIFRGIKHVGKTIHRLVTG [Pis-V10K]	1.0 µM	4.0 µM	1.0 µM	2.0 µM	2.0 µM	4.0 µM	1.0 µM	4.0 µM	2.0 µM	8.0 µM	2.0 µM	2.0 µM	4.0 µM	2.0 µM	4.0 µM	3.8 µM	4.0 µM	2.0 µM	1.0 µM	8.0 µM	MIC (P. aeruginosa KCTC2513): 2.0 µM; MIC (B. subtilis KCTC1021): 4.0 µM; MIC (MDRST CCARM 8003): 8.0 µM; MIC (E.coli KCTC2571): 2.0 µM; Average MIC [2]: 1.6 µM; MIC (B. subtilis KCTC3068): 1.0 µM; MIC (MDRAB CCARM 12037): 2.0 µM; MIC (P. aeruginosa KCTC2004): 2.0 µM; MIC (S. typhimurium KCTC1926): 1.0 µM; MIC (S. aureus KCTC3881): 1.0 µM; MIC (S. aureus KCTC1916): 2.0 µM; MIC (MDRST CCARM 8009): 4.0 µM; MIC (E. coli KCTC2593): 2.0 µM; MIC (MDRAB CCARM 12036): 2.0 µM
FFHHIKRGIKHVGKTIHRLVTG [Pis-F6K/V10K]	2.0 µM	8.0 µM	4.0 µM	4.0 µM	4.0 µM	8.0 µM	4.0 µM	8.0 µM	2.0 µM	8.0 µM	4.0 µM	4.0 µM	8.0 µM	4.0 µM	8.0 µM	6.4 µM	8.0 µM	2.0 µM	4.0 µM	8.0 µM	MIC (P. aeruginosa KCTC2513): 8.0 µM; MIC (B. subtilis KCTC1021): 8.0 µM; MIC (MDRST CCARM 8003): 16 µM; MIC (E.coli KCTC2571): 4.0 µM; Average MIC [2]: 5.0 µM; MIC (B. subtilis KCTC3068): 4.0 µM; MIC (MDRAB CCARM 12037): 4.0 µM; MIC (P. aeruginosa KCTC2004): 8.0 µM; MIC (S. typhimurium KCTC1926): 8.0 µM; MIC (S. aureus KCTC3881): 4.0 µM; MIC (S. aureus KCTC1916): 4.0 µM; MIC (MDRST CCARM 8009): 8.0 µM; MIC (E. coli KCTC2593): 4.0 µM; MIC (MDRAB CCARM 12036): 4.0 µM
FFHHIKRGIVHVGKTIHRLVTG [Pis-F6K]	4.0 µM	16 µM	2.0 µM	4.0 µM	1.0 µM	16 µM	4.0 µM	16 µM	4.0 µM	16 µM	4.0 µM	4.0 µM	16 µM	4.0 µM	16 µM	11 µM	16 µM	4.0 µM	8.0 µM	16 µM	MIC (P. aeruginosa KCTC2513): 8.0 µM; MIC (B. subtilis KCTC1021): 4.0 µM; MIC (MDRST CCARM 8003): 16 µM; MIC (E.coli KCTC2571): 4.0 µM; Average MIC [2]: 4.6 µM; MIC (B. subtilis KCTC3068): 4.0 µM; MIC (MDRAB CCARM 12037): 4.0 µM; MIC (P. aeruginosa KCTC2004): 8.0 µM; MIC (S. typhimurium KCTC1926): 8.0 µM; MIC (S. aureus KCTC3881): 4.0 µM; MIC (S. aureus KCTC1916): 4.0 µM; MIC (MDRST CCARM 8009): 16 µM; MIC (E. coli KCTC2593): 2.0 µM; MIC (MDRAB CCARM 12036): 4.0 µM
